Results reported in patent US11718604B2, “4-amino-6-(1,3-benzodioxole)picolinates and their use as herbicides” (Dow AgroSciences LLC, priority 2018, dated 2023).

Experiments:
Format in all cases: in vivo
[1] = tested on: EPHHL: wild poinsettia (Euphorbia heterophylla); experiment: Post-emergent herbicidal test, wild poinsettia; conditions: post-emergence, 336 h, 14 days after application, read-out: Visual Growth Reduction (%) 14 Days After Application EPHHL
Protocol: (§1) Post-Emergent Test: Seeds or nutlets of the desired test plant species were planted in Sun Gro Metro-Mix® 360 planting mixture, which typically has a pH of 6.0 to 6.8 and an organic matter content of about 30 percent, in plastic pots with a surface area of 64 square centimeters (cm^2). When required to ensure good germination and healthy plants, a fungicide treatment and/or other chemical or physical treatment was applied. The plants were grown for 7-21 d in a greenhouse with an approximate 15 h photoperiod which was maintained at about 23-29° C. during the day and 22-28° C. during the night. Nutrients and water were added on a regular basis and supplemental lighting was provided with overhead metal halide 1000-Watt lamps as necessary. The plants were employed for testing when they reached the first or second true leaf stage.
(§2) A weighed amount, determined by the highest rate to be tested, of each test compound was placed in a 25 mL glass vial and was dissolved in 4 mL of a 97:3 v/v mixture of acetone and DMSO to obtain concentrated stock solutions. […] The concentrated stock solutions obtained were diluted with 20 mL of an aqueous mixture containing acetone, water, isopropyl alcohol, DMSO, Atplus 411F crop oil concentrate, and Triton® X-155 surfactant in a 48.5:39:10:1.5:1.0:0.02 v/v ratio to obtain spray solutions containing the highest application rates. Additional application rates were obtained by serial dilution of 12 mL of the high rate solution into a solution containing 2 mL of a 97:3 v/v mixture of acetone and DMSO and 10 mL of an aqueous mixture containing acetone, water, isopropyl alcohol, DMSO, Atplus 411F crop oil concentrate, and Triton X-155 surfactant in a 48.5:39:10:1.5:1.0:0.02 v/v ratio to obtain ½×, ¼×, ⅛× and 1/16× rates of the high rate. Compound requirements are based upon a 12 mL application volume at a rate of 187 liters per hectare (L/ha). Formulated compounds were applied to the plant material with an overhead Mandel track sprayer equipped with 8002E nozzles calibrated to deliver 187 L/ha over an application area of 0.503 square meters at a spray height of 18 inches (43 cm) above the average plant canopy height. Control plants were sprayed in the same manner with the solvent blank.
(§3) The treated plants and control plants were placed in a greenhouse as described above and watered by subirrigation to prevent wash-off of the test compounds. After 14 d, the condition of the test plants as compared with that of the untreated plants was determined visually and scored on a scale of 0 to 100 percent where 0 corresponds to no injury and 100 corresponds to complete kill.

[2] = tested on: SETFA: giant foxtail (Setaria faberi); experiment: Post-emergent herbicidal test, giant foxtail; conditions: post-emergence, 336 h, 14 days after application, read-out: Visual Growth Reduction (%) 14 Days After Application SETFA
Protocol: as §1, §2, §3

[3] = tested on: DIGSA: large crabgrass (Digitaria sanguinalis); experiment: Post-emergent herbicidal test, large crabgrass; conditions: post-emergence, 336 h, 14 days after application, read-out: Visual Growth Reduction (%) 14 Days After Application DIGSA
Protocol: as §1, §2, §3

[4] = tested on: ABUTH: velvetleaf (Abutilon theophrasti); experiment: Post-emergent herbicidal test, velvetleaf; conditions: post-emergence, 336 h, 14 days after application, read-out: Visual Growth Reduction (%) 14 Days After Application ABUTH
Protocol: as §1, §2, §3

[5] = tested on: CYPES: yellow nutsedge (Cyperus esculentus); experiment: Post-emergent herbicidal test, yellow nutsedge; conditions: post-emergence, 336 h, 14 days after application, read-out: Visual Growth Reduction (%) 14 Days After Application CYPES
Protocol: as §1, §2, §3

[6] = tested on: IPOHE: ivyleaf morningglory (Ipomoea hederacea); experiment: Post-emergent herbicidal test, ivyleaf morningglory; conditions: post-emergence, 336 h, 14 days after application, read-out: Visual Growth Reduction (%) 14 Days After Application IPOHE
Protocol: as §1, §2, §3

[7] = tested on: CIRAR: Canada thistle (Cirsium arvense); experiment: Post-emergent herbicidal test, Canada thistle; conditions: post-emergence, 336 h, 14 days after application, read-out: Visual Growth Reduction (%) 14 Days After Application CIRAR
Protocol: as §1, §2, §3

[8] = tested on: ECHCG: barnyardgrass (Echinochloa crus-galli); experiment: Post-emergent herbicidal test, barnyardgrass; conditions: post-emergence, 336 h, 14 days after application, read-out: Visual Growth Reduction (%) 14 Days After Application ECHCG
Protocol: as §1, §2, §3

[9] = tested on: SORVU: shattercane (Sorghum bicolor); experiment: Post-emergent herbicidal test, shattercane; conditions: post-emergence, 336 h, 14 days after application, read-out: Visual Growth Reduction (%) 14 Days After Application SORVU
Protocol: as §1, §2, §3

[10] = tested on: VIOTR: wild violet (Viola tricolor); experiment: Post-emergent herbicidal test, wild violet; conditions: post-emergence, 336 h, 14 days after application, read-out: Visual Growth Reduction (%) 14 Days After Application VIOTR
Protocol: as §1, §2, §3

[11] = tested on: BRSNN: oilseed rape, canola (Brassica napus); experiment: Post-emergent herbicidal test, oilseed rape; conditions: post-emergence, 336 h, 14 days after application, read-out: Visual Growth Reduction (%) 14 Days After Application BRSNN
Protocol: as §1, §2, §3

COC(=O)c1nc(-c2ccc(Cl)c3c2OCO3)c(F)c(N)c1Cl [Compound 1A, methyl 4-amino-3-chloro-6-(7-chlorobenzo[d][1,3]dioxol-4-yl)-5-fluoropicolinate]
pest or weed control at 17.5 g/ha ([1]; 17.5 g ai/ha): 3% | pest or weed control at 35 g/ha ([1]; 35 g ai/ha): 10% | pest or weed control at 70 g/ha ([1]; 70 g ai/ha): 13% | pest or weed control at 140 g/ha ([1]; 140 g ai/ha): 18% | pest or weed control at 17.5 g/ha ([2]; 17.5 g ai/ha): 15% | pest or weed control at 35 g/ha ([2]; 35 g ai/ha): 15% | pest or weed control at 70 g/ha ([2]; 70 g ai/ha): 25% | pest or weed control at 140 g/ha ([2]; 140 g ai/ha): 30% | pest or weed control at 17.5 g/ha ([3]; 17.5 g ai/ha): 5% | pest or weed control at 35 g/ha ([3]; 35 g ai/ha): 20% | pest or weed control at 70 g/ha ([3]; 70 g ai/ha): 50% | pest or weed control at 140 g/ha ([3]; 140 g ai/ha): 28% | pest or weed control at 17.5 g/ha ([4]; 17.5 g ai/ha): 85% | pest or weed control at 35 g/ha ([4]; 35 g ai/ha): 90% | pest or weed control at 70 g/ha ([4]; 70 g ai/ha): 93% | pest or weed control at 140 g/ha ([4]; 140 g ai/ha): 95% | pest or weed control at 17.5 g/ha ([5]; 17.5 g ai/ha): 78% | pest or weed control at 35 g/ha ([5]; 35 g ai/ha): 83% | pest or weed control at 70 g/ha ([5]; 70 g ai/ha): 83% | pest or weed control at 140 g/ha ([5]; 140 g ai/ha): 80% | pest or weed control at 17.5 g/ha ([6]; 17.5 g ai/ha): 0% | pest or weed control at 35 g/ha ([6]; 35 g ai/ha): 0% | pest or weed control at 70 g/ha ([6]; 70 g ai/ha): 0% | pest or weed control at 140 g/ha ([6]; 140 g ai/ha): 0% | pest or weed control at 17.5 g/ha ([7]; 17.5 g ai/ha): 83% | pest or weed control at 35 g/ha ([7]; 35 g ai/ha): 83% | pest or weed control at 70 g/ha ([7]; 70 g ai/ha): 88% | pest or weed control at 140 g/ha ([7]; 140 g ai/ha): 93% | pest or weed control at 17.5 g/ha ([8]; 17.5 g ai/ha): 8% | pest or weed control at 35 g/ha ([8]; 35 g ai/ha): 18% | pest or weed control at 70 g/ha ([8]; 70 g ai/ha): 28% | pest or weed control at 140 g/ha ([8]; 140 g ai/ha): 30% | pest or weed control at 17.5 g/ha ([9]; 17.5 g ai/ha): 25% | pest or weed control at 35 g/ha ([9]; 35 g ai/ha): 43% | pest or weed control at 70 g/ha ([9]; 70 g ai/ha): 55% | pest or weed control at 140 g/ha ([9]; 140 g ai/ha): 65% | pest or weed control at 17.5 g/ha ([10]; 17.5 g ai/ha): 53% | pest or weed control at 35 g/ha ([10]; 35 g ai/ha): 95% | pest or weed control at 70 g/ha ([10]; 70 g ai/ha): 75% | pest or weed control at 140 g/ha ([10]; 140 g ai/ha): 90% | pest or weed control at 17.5 g/ha ([11]; 17.5 g ai/ha): 78% | pest or weed control at 35 g/ha ([11]; 35 g ai/ha): 88% | pest or weed control at 70 g/ha ([11]; 70 g ai/ha): 95% | pest or weed control at 140 g/ha ([11]; 140 g ai/ha): 98%
